According to patent US20050232891A1, “Methods of treating skin with diphosphonate derivatives” (ILEX Products Inc., priority 2001, published 2005):
Where two headings read alike, the source gives them in different places.

Columns and labels:
HepG2 cells = assay: Stimulation of collagen expression (cDNA microarray), Apomine treated versus control HepG2 cells; assay type: cell-based, human; conditions: gene expression; for fold induction at 1 µM: Homo sapiens, HepG2, 1 μM Apomine vs ethanol vehicle control
Procedure: HepG2 cells were grown in Dulbecco's modified Eagle medium (DMEM) supplemented with 10% FBS. Cells were harvested when they were about 80-90% confluent and were directly subjected to RNA isolation. Treated cells were incubated with 1 μM Apomine and control cells were incubated with a volume of ethanol used as vehicle for the Apomine.
DNA microarray slides used in this study were fabricated in the microarray core facilities at the Arizona Cancer Center (Calaluce et al., 2001). Each slide has 5760 spots divided into 4 blocks. Each block contains the same 8 ice plant genes from Mesembryanthemum crystallinum and 23 different housekeeping genes as references for data normalization. Overall, each slide has 5289 unique human cDNA sequences.
Poly(A)^+ RNA was directly isolated from cell pellets using the FastTrack 2.0 Kit (Invitrogen, Carsbad, Calif.) following the instruction manual provided by the manufacturer. Each RNA sample was inspected by denaturing agarose gel electrophoresis to ensure the quality of the preparation. Labeling and purification of cDNA probes were carried out using the MICROMAX direct cDNA microarray system (NEN Life Science Products, Boston, Mass.). Two to four micrograms of the poly(A)+ RNA samples were used for each labeling. Probes for Apomine treated HepG2 cells were labeled with Cyanine 5 (Cy5) and probes for HeLa cell was labeled with Cyanine 3 (Cy3). For investigation of control Hep2G cells, these cells were labeled with Cy3 and probes for HeLa cells were labeled with Cy5. Purified cDNA probes were dried and dissolved in 15 μL of Hybridization Buffer (included in the MICROMAX direct cDNA microarray system kit). The probes were then denatured by heating at 95° C. for 2 min and applied to the array area of a pre-denatured microarray slide. The microarray slide was covered with a […] slide cover slip and incubated in a HybChamber (GeneMachines, San Carlos, Calif.) at 62° C. for overnight. On the second day, the slide was washed in 0.5×SSC, 0.01% SDS for 5 min, 0.06×SSC, 0.01% SDS for 5 min, and 0.06×SCC for 2 min. Finally, the slide was dried by spinning at 500 g for 1 min and scanned in a dual-laser (635 nm for red fluorescent Cy5 and 532 nM for green fluorescent Cy3) microarray scanner (GenePix 4000, Axon Instruments, Foster City, Calif.).
Fluorescence intensities for both dyes (Cy3 and Cy5) and local background subtracted values for individual spots were obtained using the GenePix 4000 microarray scanner and accompanying software (Axon Instruments, Foster City, Calif.). The data were imported into Microsoft Excel spreadsheets for analysis. Defective spots, i.e., ones that are sub-standard on the scanned image or have negative background subtracted values, were first filtered. To minimize the effects of measurement variations introduced by artificial sources during experiments, only spots that had significant signals in both channels were included. The determination of this significance is based on signal intensities of non-homologous ice plant genes. Generally, if the signal intensity of a spot is less than the average of ice plant spots, the signal was considered as non-significant. In this analysis the significance cutoff for signal to background ratio as 1.4 was determined empirically. Thus, a spot was excluded in further analysis if it has a signal to background ratio less than 1.4 in both channels. For each spot, the median of ratios (the median of the pixel-by-pixel ratios of pixel intensities that have the median background intensity subtracted) was used in subsequent analysis. Spots representing housekeeping genes were used to normalize the entire slide so that all slides can be compared directly. For each pancreatic cell line, at least two hybridizations were carried out. The average of median ratios from replicates was calculated for each spot. […]

[1] = Percutaneous absorption of Apomine: plasma level after topical application; assay type: in vivo, female Swiss nude (nu/nu) mice; conditions: female, Swiss nude (nu/nu), mouse, three hours after the last application
Procedure: Plasma concentrations of Apomine are measured with a Hewlett Packard gas chromatograph using a nitrogen phosphorus detector and HP-5 15 m×0.32 mm column. Alberts et al., 2001). Apomine is extracted from plasma with methyl t-butyl ether (MTBE). To 250 μl of plasma sample, 10 μl of a methanolic solution of the internal standard (n-propyl phoposhonate analog of Apomine) at a final concentration of 4 μg/ml are added and mixed by vortexing. The compound and internal standard are extracted with 500 μl MTBE and 30 sec vigorous shaking. The organic layer obtained by centrifugation (5 min at 13,000 rpm) is dried under nitrogen and reconstituted in 250 μl MTBE of which 2 μl is injected with an autoampler for analysis. A calibration curve is established with plasma from untreated mice spiked with different concentrations of Apomine. The calibration curve is used to interpolate the concentrations of Apomine in the samples using the peak area ratio values.
Apomine (1 mg) was topically applied to five to six week old female Swiss nude (nu/nu) mice by application of 20 μl of a 50 mg/ml solution of Apomine in acetone. Treatment was continued daily for 24 days. Three hours after the last application the mice were sacrificed and plasma Apomine levels were measured. The plasma concentration was 1.12±0.10 μg/ml plasma (n=6), which is 2 μM Apomine. […]

[2] = patients, 75 mg/m^2 twice a day orally for 14 days; cited from earlier work

## CC(C)OP(=O)(OC(C)C)C(Cc1cc(C(C)(C)C)c(O)c(C(C)(C)C)c1)P(=O)(OC(C)C)OC(C)C [Apomine, tetraisopropyl 2-(3,5-di-tert-butyl-4-hydroxyphenyl)-ethylidene-1,1-diphosphonate]
HepG2 cells; 1 μM Apomine vs ethanol vehicle control
  Fold induction, Procollagen, type III: 6.49 fold
HepG2 cells; read-out: Fold induction, Collagen, type I, alpha 2
  fold induction at 1 µM: 1.65
HepG2 cells; read-out: Fold induction, Collagen, type II, alpha 1
  fold induction at 1 µM: 5.5
HepG2 cells; read-out: Fold induction, Collagen, type IV, alpha 4
  fold induction at 1 µM: 1.7
HepG2 cells; read-out: Fold induction, Collagen, type IX, alpha 3
  fold induction at 1 µM: 1.4
HepG2 cells; read-out: Fold induction, Collagen, type V, alpha 1
  fold induction at 1 µM: 1.42
HepG2 cells; read-out: Fold induction, Collagen, type VI, alpha 2
  fold induction at 1 µM: 2.4
HepG2 cells; read-out: Fold induction, Collagen, type VI, alpha 3
  fold induction at 1 µM: 1.16
HepG2 cells; read-out: Fold induction, Collagen, type XI, alpha 1
  fold induction at 1 µM: 2.66
HepG2 cells; read-out: Fold induction, Procollagen, type III
  fold induction at 1 µM: > 6
[1]; 1 mg topically (20 μl of 50 mg/ml in acetone) daily for 24 days, n=6
  concentration at 3 h: 1120 ± 100 ng/mL
[1]; 1 mg topically daily for 24 days
  concentration at 3 h: 2000 nM
[2]
  adverse effects: no adverse effects
